According to ChEMBL document CHEMBL4831510, “Novel cannabidiol-carbamate hybrids as selective BuChE inhibitors: Docking-based fragment reassembly for the development of potential therapeutic agents against Alzheimer's disease” (Eur J Med Chem, 2021):
Calls of active or inactive are those of the source. The rule behind the calls is not given here.

Legend:
Acetylcholinesterase = Acetylcholinesterase (Homo sapiens, UniProt P22303); assay: Inhibition of human AChE using acetylthiocholine iodide as substrate at 20 uM preincubated with enzyme for 5 mins followed by substrate addition and measured after 5 mins by Ellman's method; details: time 10.0 min
Sequence of Acetylcholinesterase (P22303 whole entry): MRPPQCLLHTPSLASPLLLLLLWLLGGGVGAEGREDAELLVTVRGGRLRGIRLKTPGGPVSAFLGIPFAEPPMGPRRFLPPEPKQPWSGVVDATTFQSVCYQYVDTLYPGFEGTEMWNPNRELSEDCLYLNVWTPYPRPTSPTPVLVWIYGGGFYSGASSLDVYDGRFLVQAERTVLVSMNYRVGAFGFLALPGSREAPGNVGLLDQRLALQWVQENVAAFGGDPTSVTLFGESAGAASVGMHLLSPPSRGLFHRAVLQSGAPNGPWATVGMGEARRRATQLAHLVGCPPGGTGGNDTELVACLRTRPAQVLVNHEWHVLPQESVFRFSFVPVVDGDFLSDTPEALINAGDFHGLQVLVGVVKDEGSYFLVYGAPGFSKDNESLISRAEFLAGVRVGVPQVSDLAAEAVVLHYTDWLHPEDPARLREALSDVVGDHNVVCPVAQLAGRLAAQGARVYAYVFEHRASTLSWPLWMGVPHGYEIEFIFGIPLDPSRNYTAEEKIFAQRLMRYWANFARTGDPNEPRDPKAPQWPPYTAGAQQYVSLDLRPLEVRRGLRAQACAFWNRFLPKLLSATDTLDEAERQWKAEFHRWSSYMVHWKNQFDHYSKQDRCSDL

[1] = Hepatotoxicity in ICR mouse assessed as effect on AST level in serum at 30 mg/kg, ig measured after 36 hrs; type: toxicity, organism-based; details: in vivo, po
Mus musculus [2] = assay: Anti-alzheimer activity against oligomerized-amyloid beta (1 to 42) peptide-induced cognitive dysfunction ICR mouse model assessed as improvement in alteration performance at 5 mg/kg, po administered from day 3 to 14 by […]; type: functional, organism-based; details: time 12.0 day
[3] = target: Cholinesterase (Equus caballus) (UniProt P81908); assay: Pseudo-irreversible inhibition of equine serum BuChE assessed as overall carbamolyation-rate using butyrylthiocholine iodide as substrate preincubated with enzyme for 60 mins prior to substrate addition; type: cell-free
Sequence of Cholinesterase (Equus caballus) (P81908 whole entry): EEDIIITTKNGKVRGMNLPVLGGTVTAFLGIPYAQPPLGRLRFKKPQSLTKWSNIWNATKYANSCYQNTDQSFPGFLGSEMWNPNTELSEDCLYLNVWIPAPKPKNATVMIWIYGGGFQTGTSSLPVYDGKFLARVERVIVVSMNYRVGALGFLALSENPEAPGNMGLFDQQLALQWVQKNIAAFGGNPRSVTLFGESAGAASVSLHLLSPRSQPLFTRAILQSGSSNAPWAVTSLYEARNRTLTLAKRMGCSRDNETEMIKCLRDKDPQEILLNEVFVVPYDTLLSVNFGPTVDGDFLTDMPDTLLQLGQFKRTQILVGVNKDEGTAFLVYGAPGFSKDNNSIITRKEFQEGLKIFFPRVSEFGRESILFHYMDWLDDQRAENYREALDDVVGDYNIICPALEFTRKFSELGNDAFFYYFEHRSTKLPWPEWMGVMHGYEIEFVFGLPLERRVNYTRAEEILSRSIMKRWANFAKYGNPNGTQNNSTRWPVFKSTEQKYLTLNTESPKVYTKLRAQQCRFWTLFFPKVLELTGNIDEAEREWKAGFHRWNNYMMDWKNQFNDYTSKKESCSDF

[4] = Cytotoxicity against human L02 cells assessed as cell viability at 50 uM incubated for 24 hrs by MTT assay; type: cell-based; details: read-out: Activity
Mus musculus [5] = assay: Anti-alzheimer activity against oligomerized-amyloid beta (1 to 42) peptide-induced cognitive dysfunction ICR mouse model assessed as reduction in escape latency time at 5 mg/kg, po administered from day 3 to 14 by Morris water maze test; type: functional, organism-based; details: time 12.0 day
[6] = Acute toxicity in ICR mouse assessed as animal death at 1 g/kg, ig measured for 7 days; details: in vivo, po, 1000 mg/kg, 168 h, time 7 day
Mus musculus [7] = assay: Anti-alzheimer activity against scopolamine-induced cognitive dysfunction mouse model assessed as increase in swimming time in the target quadrant crossing at 20 mg/kg, ip measured after 60 mins by Morris water maze test; type: functional, organism-based
[8] = Hepatotoxicity in ICR mouse assessed as pericentral necrosis in liver at 30 mg/kg, ig measured after 36 hrs by immunohistochemical staining based analysis; type: toxicity, organism-based; details: in vivo, po
[9] = Antioxidant activity assessed as DPPH radical scavenging activity at 100 uM incubated for 2 hrs by microplate reader method; type: functional
[10] = target: Cholinesterase (Equus caballus) (UniProt P81908); assay: Pseudo-irreversible inhibition of equine serum BuChE assessed as carbamolyation-rate using butyrylthiocholine iodide as substrate preincubated with enzyme for 60 mins prior to substrate addition; type: cell-free
Mus musculus [11] = assay: Anti-alzheimer activity against scopolamine-induced cognitive dysfunction mouse model assessed as reduction in escape time latency at 20 mg/kg, ip measured after 60 mins by Morris water maze test; type: functional, organism-based
PC-12 [12] = assay: Neuroprotective activity against H2O2-induced cytotoxicity in rat PC-12 cells assessed as increase in cell viability pretreated for 3 hrs followed by H2O2 stimulation and measured after 24 hrs by MTT assay; type: functional, cell-based; details: time 27.0 hrs
[13] = target: Acetylcholinesterase (Electrophorus electricus) (UniProt O42275); assay: Inhibition of electric eel AChE using acetylthiocholine iodide as substrate at 20 uM preincubated with enzyme for 20 mins followed by substrate addition and measured after 20 mins by Ellman's method; details: time 40.0 min
Sequence of Acetylcholinesterase (Electrophorus electricus) (O42275 24-633 limits assumed): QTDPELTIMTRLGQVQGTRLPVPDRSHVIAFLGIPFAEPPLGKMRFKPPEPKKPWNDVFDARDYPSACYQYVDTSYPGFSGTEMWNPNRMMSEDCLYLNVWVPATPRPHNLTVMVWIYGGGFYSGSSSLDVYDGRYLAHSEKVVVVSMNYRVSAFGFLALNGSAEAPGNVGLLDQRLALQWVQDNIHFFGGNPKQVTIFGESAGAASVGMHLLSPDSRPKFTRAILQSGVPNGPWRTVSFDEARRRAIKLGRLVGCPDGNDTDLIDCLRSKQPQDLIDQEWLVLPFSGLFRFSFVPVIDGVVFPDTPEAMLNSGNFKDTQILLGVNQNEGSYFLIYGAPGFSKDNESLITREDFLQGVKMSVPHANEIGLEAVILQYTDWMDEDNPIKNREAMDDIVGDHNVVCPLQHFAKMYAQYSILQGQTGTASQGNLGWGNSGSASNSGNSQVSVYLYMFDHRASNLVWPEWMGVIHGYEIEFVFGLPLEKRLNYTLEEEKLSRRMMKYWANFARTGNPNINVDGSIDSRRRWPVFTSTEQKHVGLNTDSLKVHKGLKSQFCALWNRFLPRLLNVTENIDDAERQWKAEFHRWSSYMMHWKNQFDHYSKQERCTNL

[14] = Hepatotoxicity in ICR mouse assessed as effect on ALT level in serum at 30 mg/kg, ig measured after 36 hrs; type: toxicity, organism-based; details: in vivo, po
[15] = Cytotoxicity against human HepG2 cells assessed as cell viability at 50 uM incubated for 24 hrs by MTT assay; type: cell-based; details: read-out: Activity
[16] = Hepatotoxicity in ICR mouse assessed as distinct fatty degeneration of hepatocytes of the surrounding intermediate and peripheral zones in liver at 30 mg/kg, ig measured after 36 hrs by immunohistochemical staining based analysis; type: toxicity, organism-based; details: in vivo, po
[17] = Acute toxicity in ICR mouse assessed as effect on body weight at 1 g/kg, ig measured for 14 days; details: in vivo, po, 1000 mg/kg, 336 h, time 14 day
Cholinesterase [18] = target: T1, Cholinesterase (Equus caballus, UniProt P81908); assay: Pseudo-irreversible inhibition of equine serum BuChE assessed as binding affinity in an equilibrium state using butyrylthiocholine iodide as substrate preincubated with enzyme for 60 mins prior to substrate addition; type: cell-free
T1 sequence (P81908 whole entry): as the sequence (P81908 whole entry) above

[19] = Permeability of the compound at 100 ug/ml incubated for 18 hrs by PAMPA; type: ADME; details: dose 100 µg/ml, read-out: permeability
Mus musculus [20] = assay: Anti-alzheimer activity against oligomerized-amyloid beta (1 to 42) peptide-induced cognitive dysfunction ICR mouse model assessed as simplification of trajectories to the platform at 5 mg/kg, po administered from day 3 to 14 by Morris water maze test; type: functional, organism-based; details: time 12.0 day
Mus musculus [21] = assay: Anti-alzheimer activity against oligomerized-amyloid beta (1 to 42) peptide-induced cognitive dysfunction ICR mouse model assessed as increase in neuronal density at CA1 region of hippocampus at 5 mg/kg, po administered from day 3 to 14 by Hematoxylin-Eosin staining based microscopic analysis; type: functional, organism-based; details: time 12.0 day
Cholinesterase [22] = target: Cholinesterase (Homo sapiens, UniProt P06276)
Sequence of Cholinesterase (Homo sapiens, UniProt P06276) (P06276 whole entry): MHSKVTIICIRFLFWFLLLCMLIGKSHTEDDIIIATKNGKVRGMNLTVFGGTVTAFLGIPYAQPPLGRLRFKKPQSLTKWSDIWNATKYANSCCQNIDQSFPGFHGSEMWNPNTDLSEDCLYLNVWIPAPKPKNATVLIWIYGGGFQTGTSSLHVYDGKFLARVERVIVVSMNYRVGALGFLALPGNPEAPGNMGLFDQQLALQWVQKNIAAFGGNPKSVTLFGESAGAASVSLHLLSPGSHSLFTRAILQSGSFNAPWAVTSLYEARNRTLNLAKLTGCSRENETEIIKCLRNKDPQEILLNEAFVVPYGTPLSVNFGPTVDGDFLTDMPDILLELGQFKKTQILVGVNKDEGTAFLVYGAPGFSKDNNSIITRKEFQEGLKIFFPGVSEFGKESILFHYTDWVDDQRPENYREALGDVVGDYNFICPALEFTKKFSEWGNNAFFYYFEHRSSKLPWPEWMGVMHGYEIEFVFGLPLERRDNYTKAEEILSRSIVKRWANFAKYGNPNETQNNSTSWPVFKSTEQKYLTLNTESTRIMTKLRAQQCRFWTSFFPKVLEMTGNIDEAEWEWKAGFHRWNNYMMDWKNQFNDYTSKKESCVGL
Description: Inhibition of human serum BuChE using butyrylthiocholine iodide as substrate preincubated with enzyme for 5 mins followed by substrate addition and measured after 5 mins by Ellman's method

[23] = Acute toxicity in ICR mouse assessed as behavioral changes at 1 g/kg, ig measured for 7 days; details: in vivo, po, 1000 mg/kg, 168 h, time 7 day
[24] = n-Octanol/PBS partition coefficient, logP of the compound incubated for 48 hrs at pH 7.4 by shake flask method; type: physicochemical
Mus musculus [25] = assay: Anti-alzheimer activity against scopolamine-induced cognitive dysfunction mouse model assessed as increase in number of platform crossing at 20 mg/kg, ip measured after 60 mins by Morris water maze test; type: functional, organism-based
Mus musculus [26] = assay: Anti-alzheimer activity against oligomerized-amyloid beta (1 to 42) peptide-induced cognitive dysfunction ICR mouse model assessed as reduction in amyloid beta (1 to 42) peptide level in brain at 5 mg/kg, po administered from day 3 to 14 by ELISA; type: functional; details: 288 h, time 12 day
[27] = target: Cholinesterase (Equus caballus) (UniProt P81908); assay: Pseudo-irreversible inhibition of equine serum BuChE assessed as decarbamolyation-rate using butyrylthiocholine iodide as substrate preincubated with enzyme for 60 mins prior to substrate addition; type: cell-free
PC-12 [28] = assay: Neuroprotective activity against H2O2-induced cytotoxicity in rat PC-12 cells assessed as cell viability at 25 uM pretreated for 3 hrs followed by H2O2 stimulation and measured after 24 hrs by MTT assay (reference value: 38.7%); type: functional; details: time 27 hrs, read-out: Activity
Cholinesterase [29] = target: T1, Cholinesterase
Description: Inhibition of equine serum BuChE using butyrylthiocholine iodide as substrate preincubated with enzyme for 20 mins followed by substrate addition and measured after 20 mins by Ellman's method

Q: With `C=C(C)[C@@H]1CCC(C)=C[C@H]1c1c(O)cc(CCCCC)cc1OC(=O)N(C)Cc1ccc(Cl)cc1` as the molecule, how does the inhibition (Acetylcholinesterase) read?
A: 26.3%

Q: And the Activity [1]?
A: Non-Toxic

Q: And the Activity (Mus musculus [2])?
A: Active

Q: And the K [3]?
A: 20.3 µM/min

Q: What about the viability at 24 h, 50 µM [4] of the same molecule?
A: 96%

Q: And the Activity (Mus musculus [5])?
A: Active

Q: What about the Activity [6] of the same molecule?
A: Non-Toxic

Q: What about the Activity (Mus musculus [7]) of the same molecule?
A: Active

Q: And the Activity [8]?
A: Non-Toxic

Q: What about the inhibition [9] of the same molecule?
A: 27.1%

Q: And the K [10]?
A: 0.26 min⁻¹

Q: What about the Activity (Mus musculus [11]) of the same molecule?
A: Active

Q: What about the Activity (PC-12 [12]) of the same molecule?
A: Dose-Dependent Effect

Q: What about the inhibition [13] of the same molecule?
A: 21.4%

Q: What about the Activity [14] of the same molecule?
A: Non-Toxic

Q: And the viability at 24 h, 50 µM [15]?
A: 88.3%

Q: What about the Activity [16] of the same molecule?
A: Non-Toxic

Q: And the Activity [17]?
A: Non-Toxic

Q: And the Kd (Cholinesterase [18])?
A: 13 nM

Q: What about the Papp at 18 h, 100 ug/ml [19] of the same molecule?
A: 12.9 ×10⁻⁶ cm/s

Q: And the Activity (Mus musculus [20])?
A: Active

Q: And the Activity (Mus musculus [21])?
A: Active

Q: What about the IC50 (Cholinesterase [22]) of the same molecule?
A: 1770 nM

Q: What about the Activity [23] of the same molecule?
A: Non-Toxic

Q: And the logD at 48 h [24]?
A: 2.38

Q: What about the Activity (Mus musculus [25]) of the same molecule?
A: Active

Q: What about the inhibition in vivo at 5 mg/kg (Mus musculus [26]) of the same molecule?
A: 31.6%

Q: What about the K [27] of the same molecule?
A: 5.2 10^3/min

Q: What about the viability at 25 µM (PC-12 [28]) of the same molecule?
A: 41.9%

Q: And the IC50 (Cholinesterase [29])?
A: 5.3 nM
